Our source for the TGI and GI50 values is PubChem BioAssay (NCI).

SMILES strings stand for the structures.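 Step 1: Grow cells in 96-well plates. Step 2: Expose to compound for 48 hours at 5 concentrations. Step 3: Interpolate endpoints linearly; if unreached, use highest concentration. GI50 is the concentration that inhibits growth by half. At the TGI there is no net growth.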

Test in all cases: NCI anticancer screen, dose series, 48 h
Assay [1] has as its system M14 melanoma.
For assay [2], the system named is RXF 393 renal.
Assay [3] concerns COLO 205 colon.
Assay [4] concerns UACC-62 melanoma.
Assay [5] deals with LOX IMVI melanoma.
Assay [6] concerns ACHN renal.
Assay [7] relates to UO-31 renal.
Assay [8] deals with HCT-116 colon.
Assay [9] relates to IGROV1 ovarian.
Assay [10] deals with K-562 leukemia.
Assay [11] deals with EKVX NSCLC.
The subject of assay [12] is SF-539 CNS.

As for `O=c1oc2ccccc2n1P(=O)(n1c(=O)oc2ccccc21)n1c(=O)oc2ccccc21`, the TGI in assay [1], in assay [2], in assay [3], in assay [4], in [5] and in assay [6] was over 100 µM in each case. The TGI in assay [7], in assay [8], in assay [9], in assay [10], in assay [11] and in [12] was over 100 µM in each case.
In the case of `CS/C(C#N)=C(\C#N)SC`, the TGI in assay [1] was 6.56 µM; in [2] it was 5.11 µM; in [3], over 100 µM; in [4] it was 14.4 µM; in [5] it was over 100 µM; in assay [6] it was 29.9 µM. Besides, the TGI in [7] was 18.9 µM; in assay [8], over 100 µM; in [9] it was 43.8 µM; in assay [10], 48.4 µM; in [11] it was 62.2 µM; in [12], 34.1 µM.
`CC(C)OC(=O)Nc1cccc(Cl)c1`: the TGI in [1], in assay [2], in assay [3], in [4], in [5] and in assay [6] was over 100 µM in each case. The TGI in assay [7], in assay [8], in assay [9], in assay [10], in assay [11] and in assay [12] was over 100 µM throughout.
On to `CN(C)CC1CCCC(CN2CCCCC2)C1=O` (stereo not given), for which the TGI in assay [1] amounted to 18.7 µM; in assay [2], 26.6 µM; in assay [3] it was 7.03 µM; in assay [4], 33.5 µM; in assay [5], 18.3 µM; in assay [6], 13.6 µM. The TGI was 26.7 µM in [7]; 7.53 µM in assay [8]; 35.5 µM in assay [9]; 28.7 µM in [11]; 33.6 µM in assay [12].
With `[O-]c1c[n+](CCCC[n+]2cc([O-])on2)no1`, the TGI in assay [1], in assay [2], in [3], in assay [4], in assay [5] and in [6] was over 100 µM throughout. Besides, the TGI in assay [7], in assay [8], in assay [9], in assay [10], in assay [11] and in [12] was over 100 µM throughout.
With `Cc1cccc(O)c1-c1nnc(CCCCCCCCc2nnc(-c3c(C)cccc3O)n2N)n1N`, the TGI is over 100 µM in assay [1]; over 31.6 µM in [3]; over 100 µM in [4]; over 100 µM in assay [5]; over 100 µM in assay [6]; over 100 µM in assay [7]. The TGI in assay [8], in [9], in [10], in assay [11] and in [12] was over 100 µM in each case.
Regarding `Cc1ccc(S(=O)(=O)N2c3ccccc3[C@H]3CCc4c([nH]c5ccccc45)[C@H]32)cc1`, the TGI in assay [1], in assay [2], in [3], in assay [4], in assay [5] and in [6] was over 100 µM throughout. The TGI in assay [7], in assay [8], in assay [9], in [10], in assay [11] and in assay [12] was over 100 µM in each case.
In the case of `C[C@H]1C(=O)O[C@@H]1[C@H]1COC(C)(C)O1`, the TGI in [1], in [2], in [4], in assay [6], in assay [7] and in assay [11] was over 100 µM each time. The TGI in [12] was over 100 µM.
`CC(N)C(=O)OCN1C(=O)C2C3C=CC(C2C1=O)C1C2C(=O)N(COC(=O)C(C)N)C(=O)C2C31` (stereo not given): the TGI was found to be 36.7 µM in [1]; 38.7 µM in assay [2]; 35.1 µM in assay [3]; 49 µM in [4]; 35.8 µM in [5]; 70.4 µM in assay [6]. The TGI in assay [7] was over 100 µM; in assay [8] it was 44.9 µM; in [9], over 100 µM; in assay [10] it was 77 µM; in assay [11] it was over 100 µM; in assay [12] it was 47.2 µM.
In the case of `CO[C@H]1ON=C(c2c(C)cc(C)cc2C)[C@@H]1C1(c2ccccc2)ON=C(c2c(C)cc(C)cc2C)O1` (stereo not given in full), the TGI in assay [2], in [3], in assay [4], in [5], in [6] and in assay [7] was over 100 µM each time. Moreover, the TGI in assay [8], in assay [9], in assay [10], in assay [11] and in assay [12] was over 100 µM in each case.
On to `Cc1ccccc1[P+](C)(c1ccccc1C)c1ccccc1C`, for which the TGI in [1] is 41.1 µM; in assay [2], over 100 µM; in assay [3] it was 22.4 µM; in assay [4], 25.7 µM; in assay [5], 30.5 µM; in assay [6], 29.3 µM. Besides, the TGI in [7] stood at 34.8 µM; in assay [8] it was 38.5 µM; in assay [9], 33 µM; in [11], 35 µM; in [12] it was 40.8 µM.
Take `Nc1nc(Cl)cc(NCCCNc2cc(Cl)nc(N)n2)n1`: the TGI in assay [1], in assay [2], in [3], in assay [4], in assay [5] and in [7] was over 100 µM each time. Also, the TGI in [8], in assay [9], in [10], in [11] and in [12] was over 100 µM in each case.
Take `COC(=O)C(=O)C(C(=O)C1=NS(=O)(=O)c2cc(S(N)(=O)=O)c(Cl)cc2N1)c1nc2ccc(C(=O)c3ccccc3)cc2[nH]c1=O` (stereo not given): the TGI in [1], in assay [2], in assay [3], in [4], in [6] and in assay [7] was over 100 µM throughout. For the same molecule, the TGI in assay [8], in assay [9], in assay [10], in assay [11] and in assay [12] was over 100 µM each time.
On to `Cn1cc(-c2csc(-c3cn(C)c4ccc(Br)cc34)n2)c2cnccc21`, for which the GI50 is 1700 nM in [2]; 1720 nM in assay [4]; 1970 nM in assay [6]; 1630 nM in assay [7]; 1760 nM in assay [9]; 239 nM in [10]. Further, the figures for the GI50 in assay [11] and in [12] were 1860 nM and 1800 nM, respectively. Besides, the TGI in assay [2] turned out to be 3.2 µM; in assay [4], 3.21 µM; in assay [6], 3.4 µM; in assay [7] it was 3 µM; in [9], 3.28 µM; in [10] it was 0.563 µM. Moreover, the TGI in [11] was 3.48 µM; in assay [12], 3.23 µM.
Take `NC(=O)c1ccc(NS(=O)(=O)c2ccc(N)cc2)nc1`: the TGI in assay [1], in [3], in assay [4], in assay [5], in assay [6] and in assay [7] was over 100 µM in each case. Also, the TGI in [8], in assay [9], in [10] and in [11] was over 100 µM throughout.
Regarding `CN1C(=O)CN2C(Cl)(Cl)C2(c2ccccc2F)c2cc([N+](=O)[O-])ccc21` (stereo not given), the TGI in assay [1] is over 100 µM; in assay [2], 66 µM; in [3], over 100 µM; in [4] it was over 100 µM; in assay [5], over 100 µM; in assay [6], over 100 µM. In addition, the TGI in assay [7], in [8], in assay [9], in assay [10] and in assay [11] was over 100 µM throughout.
`C1CCC(OCc2nnn3c2CCC3)OC1` (stereo not given): the TGI in [1], in assay [2], in assay [4], in [5], in assay [6] and in assay [7] was over 100 µM throughout. The TGI in assay [8], in assay [9], in assay [10], in [11] and in assay [12] was over 100 µM in each case.
With `c1ccc(CSC2(SCc3ccccc3)CCCC2)cc1`, the TGI in assay [1], in assay [2], in [3], in assay [4], in assay [5] and in [6] was over 10 µM throughout. Moreover, the TGI in assay [7], in assay [8], in assay [9], in assay [10], in assay [11] and in assay [12] was over 10 µM each time.
